# Results reported in patent US20180028480A1, “METHODS OF REDUCING OR PREVENTING OXIDATIVE MODIFICATION OF MEMBRANE POLYUNSATURATED FATTY ACIDS” (Amarin Pharmaceuticals Ireland Limited, priority 2015, published 2018).
# Tests used:
# [1] = X-ray diffraction of glucose-treated DLPC/cholesterol membranes under oxidative conditions (Example 8); conditions: for effect on d-space values: 10.0 μM, 0.6 C/P, glucose-induced lipid peroxidation 72 hours (FIG. 14); for cholesterol domain peaks compared to samples treated with EPA: after 96 hours, C/P 0.6:1, drug-to-phospholipid 1:30
# Protocol: Values are reported as mean±S.D. (N=3).
# […] Membranes were reconstituted from DLPC and cholesterol at a C/P mole ratio of 0.6:1 and treated with the various agents to achieve a total drug-to-phospholipid mole ratio of 1:30.
# (§1) Multilamellar vesicles (MLVs) were prepared as binary mixtures of POPC and cholesterol at 50 mol %. MLVs with DLPC and cholesterol at cholesterol-to-phospholipid (C/P) mole ratios of 0.1:1 to 1.1:1 were also prepared in a similar manner. Component lipids (in chloroform) were transferred to borosilicate culture tubes and combined with vehicle (ethanol) or an equal volume of EPA, DHA, fenofibrate, niacin or gemfibrozil stock solution(s) and adjusted to achieve a drug-to-phospholipid (D/P) mole ratio of 1:30. Membranes reconstituted from POPC and cholesterol (at 50 mol % cholesterol) were treated with each of the various agents at 5 mol %. Samples were then shell-dried under nitrogen gas and placed under vacuum for 3 hours to remove residual solvent.
# After drying, each sample was resuspended in glucose-free or glucose-containing saline buffer to yield a final phospholipid concentration of 2.5 mg/mL. Lipid suspensions were then vortexed for 3 minutes at ambient temperature to form MLVs.
# (§2) Membrane samples were oriented for x-ray diffraction analysis as described in Mason, et al., J. Biol. Chem., vol. 281, pages 9337-45 (2006). Briefly, 100 μL aliquots of each MLV preparation (containing 250 μg of phospholipid) were transferred to Lucite sedimentation cells fitted with a removable aluminum foil substrate designed to collect MLVs into a single membrane pellet upon centrifugation. Samples were then loaded into a Sorvall AH-629 swinging bucket ultracentrifuge rotor (DuPont Corp., Wilmington, Del.) and centrifuged at 35,000 g, 5° C., for 1.5 hours.
# Following membrane orientation, sample supernatants were aspirated and aluminum foil substrates mounted onto curved glass slides. The membrane samples were then placed in hermetically sealed containers in which temperature and relative humidity were controlled during x-ray diffraction analysis. Data reported in this study were collected at 20° C. and 74% relative humidity.
# This technique allows for precise measurement of the unit cell periodicity, or d-space, of the membrane lipid bilayer, which is the distance from the center of one lipid bilayer to the next, including surface hydration.
# The presence of cholesterol domains in a given membrane sample results in the production of distinct Bragg (diffraction) peaks that have singular periodicity values of 34 Å and 17 Å. These peaks are typically referred to as first- and second-order cholesterol domain peaks.
# [2] = Fluorescence anisotropy, DPH apparent rotational correlation time (Example 8); conditions: POPC, 0 or 50 mol % cholesterol; increasing omega-3 fatty acid concentrations (FIGS. 16A-16B)
# Text: FIGS. 16A-16B show the dose-dependent effects of EPA and DHA on the ARCT measured for DPH in POPC membranes prepared at either 0 or 50 mol % cholesterol. †p=0.0331 versus cognate DHA treatment (5 mol % omega-3 fatty acids (O3FA), no cholesterol); ^§p=0.0016 versus cognate DHA treatment (5 mol % O3FA, 50 mol % cholesterol); ^‡p=0.0032 versus cognate DHA treatment (10 mol % O3FA, 50 mol % cholesterol) (unpaired, two-tailed Student's t-test). Values are mean±S.D. (N=3).
# Fluorescence anisotropy experiments were conducted using large unilamellar vesicles (LUVs) of 100 nm diameter of either POPC (or POPC/cholesterol) containing increasing concentrations of EPA or DHA and 1 mol % DPH fluorescent. Briefly, 640 nmol of total lipid (phospholipid and sterol) and 6.4 nmol of fluorescent probe was mixed well and dried under a stream of nitrogen while being warmed gently at 35° C. […]
# In order to ensure that the anisotropy values measured for DPH are not influenced by lifetime-induced artifacts, the apparent (average) rotational correlation times (ARCT) were calculated using Perrin's equation: […]
# where r0 is the limiting anisotropy of DPH, r is the steady state anisotropy, and is the mean fluorescence lifetime.
# [3] = X-ray diffraction of cholesterol-enriched POPC membranes without oxidative conditions (Example 8); conditions: 5 mol %; 50 mol % cholesterol; 15° C., 20° C., 30° C. (FIG. 18)
# Protocol: Values are mean±S.D. (N=3).
# FIGS. 18A-18C show representative x-ray diffraction patterns collected from cholesterol-enriched model membranes treated with vehicle (control), eicosapentaenoic acid (EPA), or docosahexaenoic acid (DHA) and examined at 15° C., 20° C., and 30° C. Membranes were reconstituted from POPC and cholesterol at 50 mol % cholesterol and treated with each of the various agents at 5 mol % (to match treatments used in corresponding lipid dynamics experiments). Each sample was maintained at 74% relative humidity by exposing the samples to a saturated solution of L-(+) tartaric acid. […] DHA, but not EPA or vehicle, induced the formation of cholesterol domains, which are indicated by a distinct set of diffraction peaks (shaded peaks) having a characteristic d-space value of 34 Å and shown to be stable over a broad range of temperatures.
# as §1
# as §2, with “Samples were then loaded into a Sorvall AH-629 swinging bucket ultracentrifuge rotor (DuPont Corp., Wilmington, Del.) and centrifuged at 35,000 g, 5° C., for 1.5 hours.” left out
# [4] = system: lipid vesicles enriched with PUFAs and cholesterol; experiment: Glucose-induced membrane lipid peroxidation (LOOH) in DLPC/cholesterol multilamellar vesicles (Example 4); format: biochemical; conditions: each at 1.0 μM; glucose 200 mg/dL; 96 hours
# Protocol: Vitamin E (α-tocopherol) was also purchased from Sigma-Aldrich and prepared in ethanol at 1.0 mM (ε32 3.06×10^4 M^−1 cm^−1 at 294 nm) just prior to experimental use. […] All test compounds were further diluted in ethanol or aqueous buffer as needed. Glucose was prepared in saline buffer (0.5 mM HEPES, 154 mM NaCl, pH 7.3) at 11.0 mM (200 mg/dL). CHOD-iodide color reagent (stock) was prepared, with slight modification, as described by from El-Saadani et al. (J. […] Prior to experimental use, the CHOD reagent was activated by adding 24 μM ethylenediaminetetraacetic acid (EDTA), 20 μM butylated hydroxytoluene (BHT), and 0.2% Triton X-100. Multilamellar vesicles (MLVs) were prepared as binary mixtures of DLPC (1.0 or 2.5 mg total phospholipid per sample) and cholesterol at a fixed cholesterol-to-phospholipid (C/P) mole ratio of 0.6:1. Component lipids (in chloroform) were transferred to 13×100 mm borosilicate culture tubes and combined with vehicle (ethanol) or an equal volume of fatty acid, vitamin E, or ATM stock solutions, each adjusted to achieve desired treatment concentrations. Samples were shell-dried under nitrogen gas and placed under vacuum for 1 h to remove residual solvent. […] Lipid suspensions were then vortexed for 3 min at ambient temperature to form MLVs. All MLV samples were subjected to time-dependent autoxidation by incubating at 37° C. in an uncovered, shaking water bath. This method allows lipid peroxidation to occur gradually without requiring the use of exogenous initiators. Small aliquots (5-100 μL) of each sample were removed, immediately following MLV preparation (0 hour) and after exposing samples to oxidative conditions for 72 or 96 hour, and combined with 1.0 mL of activated CHOD-iodide color reagent. Aliquot volume was reduced with each successive time point to ensure that spectrophotometric readings were within the optimal adsorption range. Test samples were covered and incubated in darkness at room temperature for at least 4 hr. Sample absorbances were then measured against a CHOD blank at 365 nm using a Beckman DU-640 spectrophotometer. The CHOD colorimetric assay is based on the oxidation of iodide (I^−) by lipid hydroperoxide (LOOH) to form triiodide (I3^−), the quantity of which is directly proportional to the amount of LOOH present in the lipid sample. The molar absorptivity (c) of I3^− is 2.46×10^4 M^−1 cm^−1 at 365 nm. […] The concentration of glucose selected was consistent with previous experimental studies of hyperglycemia under controlled laboratory conditions or observed in well-defined animal models of Type II diabetes following a glucose challenge. […] Values in FIG. 1 are mean±S.D. (N=6). […]
Structure (SMILES),effect on d-space values [1],cholesterol domain peaks compared to samples treated with EPA [1],DPH apparent rotational correlation time / membrane fluidity [2],membrane cholesterol domain formation [3],"antioxidant effect (LOOH formation), separate treatments [4]"
"O=C(O)c1cccnc1 [niacin, nicotinic acid]",significant reductions in d-space,disproportionately greater,,,
Cc1ccc(C)c(OCCCC(C)(C)C(=O)O)c1 [gemfibrozil],significant reductions in d-space,disproportionately greater,,,
"CC/C=C\C/C=C\C/C=C\C/C=C\C/C=C\C/C=C\CCC(=O)O [DHA, cis-4,7,10,13,16,19-docosahexaenoic acid, reference compound]",,,reduced DPH apparent rotational correlation time,induced formation of membrane cholesterol domains,
"CC(C)c1c(C(=O)Nc2ccccc2O)c(-c2ccccc2)c(-c2ccc(F)cc2)n1CC[C@@H](O)C[C@@H](O)CC(=O)O [ATM, Atorvastatin ortho- (o-) hydroxy (active) metabolite, reference compound]",,,,,separate and potent antioxidant effects
